Experimental data: patent US20210361600A1, “METHODS FOR INDUCING CHONDROGENESIS” (THE SCRIPPS RESEARCH INSTITUTE, priority 2017, published 2021)

Key:
Human MSCs = experiment: Human chondrocyte differentiation assay; assay type: cell-based; details: 7 days; type II collagen, Sox9 and COMP immunostaining
Procedure: Human MSCs (50,000) were plated into each well of a 96-well plate and cultured overnight. […] The cells were fixed with 10% formalin solution at room temperature for 10 min, and immunostained using antibodies specific for type II collagen (Abcam), Sox9 (Santa Cruz) and cartilage oligomeric matrix protein (COMP, Santa Cruz), and fluorescently labeled secondary antibodies (Li-Cor). The total intensity of the staining was measured using Oddyssey CLx imaging system (Li-Cor). Vehicle (DMSO) was used as control to determine the basal level of chondrocyte differentiation. The result is shown in Table 1 [A: >50% increase in staining intensity compared to vehicle control; B: 30-50% increase in staining intensity compared to vehicle control].

[1] = system: Rat Medial Meniscal Tear Model; experiment: Effect of dose frequency of compound A in a rat medial meniscal tear model; assay type: in vivo, Lewis rats
Procedure: The vehicle was prepared separately, then added to aliquots of compound A powder, and the mixture was then vortexed until it becomes a clear solution. Dosing solutions were prepared for doses of 3.5 and 0.35 μg/kg (100 μM and 10 μM respectively). Dosing volume was set to 30 μL/knee. Dosing solutions were prepared fresh weekly.
Fourteen-week-old male Lewis rats (Charles River, Kingston, N.Y.) were in the weight range of 300-320 g at the start of the study
Rats were sorted based on body weight into 8 study groups of 15 rats. They were surgerized and enrolled in a staggered fashion across one week (20 animals per day for 6 days). Briefly, animals were anesthetized with a ketamine/xylazine cocktail (50 mg/kg Ketaved—Henry Schein, and 5 mg/kg Xyalzine—AniSed respectively) by intraperitoneal injection, administered appropriate analgesics (Flunixin, 5 mg/kg subcutaneous injection), and the surgical site shaved and disinfected. A small incision was made on the medial right hind knee to expose the collateral ligament. The collateral ligament was transected and the joint capsule opened sufficiently to expose the medial meniscus. The meniscus was transected completely, then the skin incision was closed, and pressure applied to the wound to prevent hematoma development. Animals were allowed to recover on a heated blanket and were returned to their home cage. Sham procedures were carried out in a similar fashion, except the medial meniscus was not cut. All surgical procedures were performed aseptically and all procedures were approved by the institute IACUC. Animals were monitored daily for the following week for postoperative care prior to dosing. Any animals with atypical healing (bruising/hematoma) were removed from the study and replaced with spare animals.
Animals were weighed weekly at the time of dosing (8-10 am), and a standardized dose of 30 μl of either vehicle or compound was administered via injection into the intra-articular space according to the regimens outlined above (groups A, B, E and H dosed once weekly, groups C and F dosed every other week, and groups D and G dosed once for the duration of the study). Animals were dosed using a Hamilton syringe with a 27 G needle attached. On study day 28, animals were euthanized, a terminal blood sample collected, and knees were harvested and placed in formalin jars for histology analysis and pathology scoring.
Analysis of the knee joint histology was performed by Bolder BioPATH. A variety of measurements to characterize the lesions were performed to score the joints based on lesion depth, severity, and overall size.

SOX9 = experiment: In vitro chondrogenesis, transcript level by qPCR; assay type: cell-based, human; details: for Induction of SOX9: 7-day treatment
Procedure: (§1) The RNA was exacted using RNeasy kit following the manufacturer's protocol. cDNA was synthesized using SuperScript III first strand synthesis kit and the transcript levels of proteoglycan 4 (PRG4), sex-determining region Y-Box 9 ([…]) and cartilage-oligo matrix protein (COMP) were determined using Taqman gene expression assays (probes) from ThermoFisher.
(§2) ΔΔCT method was applied to calculate the relative abundance of each gene using ([…] as normalizing control using ViiA 7 RUO software (ThermoFisher). The abundance of each gene of each sample was expressed as fold over DMSO-treated controls. n=3. Dose response for each marker gene was analyzed using GraphPad Prism 7 software.

[2] = system: cartilage-oligo matrix protein (COMP); experiment: In vitro chondrogenesis, transcript level by qPCR; assay type: cell-based, human; details: for Induction of COMP: 7-day treatment
Procedure: as §1, §2

proteoglycan 4 (PRG4) = experiment: In vitro chondrogenesis, transcript level by qPCR; assay type: cell-based, human; details: for Induction of PRG4: 7-day treatment
Procedure: as §1, §2

[3] = Intra-articular single dose pharmacokinetics study in rat; assay type: in vivo; details: for concentration in the knee: 1.05 μg/knee
in vivo = details: Crl:CD(SD), rat
[4] = rat, plasma, 1.05 ug, single IA dose 1.05 μg/knee

COCCc1ccc(NC(=O)c2ccccc2NS(C)(=O)=O)cc1 [Compound A, N-(4-(2-methoxyethyl)phenyl)-2-(methylsulfonamido)benzamide]
Biological Activity (increase in staining intensity compared to vehicle control) (Human MSCs): A (>50% increase in staining intensity compared to vehicle control) | combined cartilage degeneration widths with scores from mild to severe ([1]; 10 μM (0.105 μg/knee) IA once every other week, vs vehicle): statistically significant improvement | substantial cartilage degeneration width ([1]; 10 μM (0.105 μg/knee) IA once weekly or once every other week, vs vehicle): improvement | mild-to-severe degeneration widths ([1]; 10 μM (0.105 μg/knee) IA weekly): trend towards a reduction | adverse effects ([1]; IA, any dosing schedule (once weekly, once every other week, once per study), 100 μM or 10 μM): no adverse effects | progression of cartilage degeneration ([1]; dosing once every four weeks): did not demonstrate an effect | width of cartilage lesions where greater than 10% of the cartilage is damaged or lost ([1]; dosing once every other week): significant reduction | most severe cartilage lesions ([1]; not statistically significant): trend towards an improvement | Induction of SOX9 (SOX9; 0.457 nM): 1.022 ± 0.231 fold increase | Induction of SOX9 (SOX9; 1.37 nM): 1.002 ± 0.260 fold increase | Induction of SOX9 (SOX9; 4.11 nM): 3.296 ± 0.719 fold increase | Induction of SOX9 (SOX9; 12.3 nM): 2.505 ± 0.242 fold increase | Induction of SOX9 (SOX9; 37.0 nM): 1.768 ± 0.264 fold increase | Induction of SOX9 (SOX9; 111 nM): 1.977 ± 0.721 fold increase | Induction of SOX9 (SOX9; 333 nM): 4.193 ± 0.765 fold increase | EC50 (SOX9; 168 h, primary human MSCs, 7 days, read-out: EC50 (SOX9 induction)): ~2.2 nM | Induction of COMP ([2]; 0.457 nM): 1.005 ± 0.100 fold increase | Induction of COMP ([2]; 1.37 nM): 0.776 ± 0.107 fold increase | Induction of COMP ([2]; 4.11 nM): 1.322 ± 0.804 fold increase | Induction of COMP ([2]; 12.3 nM): 2.942 ± 0.575 fold increase | Induction of COMP ([2]; 37.0 nM): 1.356 ± 0.590 fold increase | Induction of COMP ([2]; 111 nM): 0.706 ± 0.193 fold increase | Induction of COMP ([2]; 333 nM): 1.896 ± 0.187 fold increase | Induction of COMP ([2]; 1000 nM): 3.121 ± 0.709 fold increase | EC50 ([2]; 168 h, primary human MSCs, 7 days, read-out: EC50 (COMP induction)): ~4.5 nM | Induction of PRG4 (proteoglycan 4 (PRG4); 0.457 nM): 1.082 ± 0.493 fold increase | Induction of PRG4 (proteoglycan 4 (PRG4); 1.37 nM): 0.582 ± 0.513 fold increase | Induction of PRG4 (proteoglycan 4 (PRG4); 4.11 nM): 1.795 ± 0.561 fold increase | Induction of PRG4 (proteoglycan 4 (PRG4); 12.3 nM): 2.226 ± 0.378 fold increase | Induction of PRG4 (proteoglycan 4 (PRG4); 37.0 nM): 1.204 ± 0.360 fold increase | Induction of PRG4 (proteoglycan 4 (PRG4); 111 nM): 1.024 ± 0.700 fold increase | Induction of PRG4 (proteoglycan 4 (PRG4); 333 nM): 2.22 ± 0.960 fold increase | Induction of PRG4 (proteoglycan 4 (PRG4); 1000 nM): 2.134 ± 0.785 fold increase | EC50 (proteoglycan 4 (PRG4); 168 h, primary human MSCs, 7 days, read-out: EC50 (PRG4 induction)): ~3.9 nM | concentration in the knee ([3]; 120 minutes after single IA injection): LLQ | concentration in the knee ([3]; immediately after single IA injection): 925.5 ng/mL | AUC(0-inf) [3, 4]: 33.9 ng·h/mL | Cmax [3, 4]: 53.3 ng/mL | half-life ([3]; rat, plasma, 1.05 ug, single IA dose 1.05 μg/knee, read-out: plasma t1/2 (converted)): 28.9 min | time up to which quantifiable in the plasma of all animals (in vivo; both): at least 2 hours | AUC(0-t) (in vivo; female, 70 ug/kg): 20.3 ng·h/mL | Cmax (in vivo; female, 70 ug/kg): 11.6 ng/mL | AUC(0-t) (in vivo; female, 70 ug/kg, AUC0-t): 18.5 ng·h/mL | Cmax (in vivo; female, 70 ug/kg, Cmax): 19.5 ng/mL | AUC(0-t) (in vivo; female, 140 ug/kg): 52.3 ng·h/mL | Cmax (in vivo; female, 140 ug/kg): 34.5 ng/mL | AUC(0-t) (in vivo; female, 140 ug/kg, AUC0-t): 43.5 ng·h/mL | Cmax (in vivo; female, 140 ug/kg, Cmax): 42.3 ng/mL | AUC(0-t) (in vivo; female, 200 ug/kg): 64.9 ng·h/mL | AUC(0-t) (in vivo; female, 200 ug/kg, AUC0-t): 39.3 ng·h/mL | Cmax (in vivo; female, 200 ug/kg, Cmax): 59.8 ng/mL | AUC(0-t) (in vivo; male, 70 ug/kg): 8.14 ng·h/mL | Cmax (in vivo; male, 70 ug/kg): 8.41 ng/mL | AUC(0-t) (in vivo; male, 70 ug/kg, AUC0-t): 8.33 ng·h/mL | Cmax (in vivo; male, 70 ug/kg, Cmax): 8.24 ng/mL | AUC(0-t) (in vivo; male, 140 ug/kg): 18.4 ng·h/mL | Cmax (in vivo; male, 140 ug/kg): 18.6 ng/mL | AUC(0-t) (in vivo; male, 140 ug/kg, AUC0-t): 15.4 ng·h/mL | Cmax (in vivo; male, 140 ug/kg, Cmax): 23.5 ng/mL | AUC(0-t) (in vivo; male, 200 ug/kg): 35.5 ng·h/mL | AUC(0-t) (in vivo; male, 200 ug/kg, AUC0-t): 22.9 ng·h/mL | Cmax (in vivo; male, 200 ug/kg, Cmax): 33.9 ng/mL
